Patent publication US4864021A, “5-fluorouracil derivatives” (Otsuka Pharmaceutical Co., Ltd., priority 1984, dated 1989)

Tested on: not listed separately
Assay: Acute toxicity, oral, 14 days observation, Litchfield-Wilcoxon method
Details: mouse, in vivo, 5-week-old ICR male mice
Description: The compounds of the present invention prepared in Examples 2 and 54 were each orally administered to 5-week-old ICR male mice (8 mice in each group) to check the mice for the symptoms, change of weight and mortality by observing the mice for 14 consecutive days after the administration of the compounds. The LD50 value was determined from the mortality by the Litchfield-Wilcoxon method with the results shown below in Table 3.

| SMILES | LD50 at 336 h [mg/kg] |
| --- | --- |
| O=c1[nH]c(=O)n([C@H]2C[C@H](OCc3ccccc3)[C@@H](CO)O2)cc1F [Example 2, 3'-O-benzyl-2'-deoxy-5-fluorouridine] | > 1000 |
| CC(=O)OC[C@H]1O[C@@H](n2cc(F)c(=O)[nH]c2=O)C[C@@H]1OCc1ccccc1 [Example 54, 3'-O-benzyl-5'-O-acetyl-2'-deoxy-5-fluorouridine] | > 1000 |

Tested on: Sarcoma-180
Assay: Antitumor test: Sarcoma-180 subcutaneously transplanted in ICR mice, oral once a day for 7 days, tumor weight on 10th day (50% tumor inhibition dose)
Assay type: in vivo
Details: Mus musculus, 240 h, Table 1, Sarcoma-180 s.c. in ICR mice, once a day for 7 consecutive days, tumor weight on 10th day, read-out: ED50 (50% tumor inhibition dose, T/C is 0.5)
Description: (a) Sarcoma-180 subcultured in an ascites of ICR mice was diluted with a physiological saline solution and subcutaneously transplated into the backs of ICR mice in an amount of 2×10^7 each. Twenty-four hours after the transplantation, a test compound suspended in a 5% solution of gum arabic was orally administered to each of mice once a day for 7 consecutive days.
The solid tumor was extirpated from under the dorsal skin of mice on the 10th day after the transplantation to measure the weight of the tumor. There was determined the ratio (T/C) of the weight of tumor (T) cut out from the group of mice treated with the test compound to the weight of tumor (C) from the group of mice not treated therewith. The 50% tumor inhibition dose (ED50 value) in which T/C is 0.5 was determined from the dose-response curve of dosage and the ratio (T/C).

| SMILES | ED50 [mg/kg] |
| --- | --- |
| O=c1[nH]c(=O)n([C@H]2C[C@H](OCc3ccccc3F)[C@@H](CO)O2)cc1F [Example 2] | 8 |
| CC(=O)OC[C@H]1O[C@@H](n2cc(F)c(=O)[nH]c2=O)C[C@@H]1OCc1ccccc1 [Example 54, 3'-O-benzyl-5'-O-acetyl-2'-deoxy-5-fluorouridine] | 15 |
| O=c1[nH]c(=O)n([C@H]2C[C@H](OCc3ccccc3)[C@@H](CO)O2)cc1F [drawing 480] | 8 |

Same assay, conditions: Mus musculus, 240 h, Table 2, same manner as in (a): Sarcoma-180 s.c. in ICR mice, once a day for 7 consecutive days, read-out: ED50 (50% tumor inhibition dose, T/C is 0.5)

| SMILES | ED50 [mg/kg] |
| --- | --- |
| CC(=O)OC[C@H]1O[C@@H](n2cc(F)c(=O)n(C(=O)c3cccc(C(=O)Oc4cc(OC(=O)c5ccccc5)c(Cl)cn4)c3)c2=O)C[C@@H]1OC(C)=O [Example 197, 3-[3-(4-benzoyloxy-5-chloro-2-pyridyloxycarbonyl)benzoyl]-2'-deoxy-3',5'-di-O-acetyl-5-fluorouridine] | 7 |
| CC(=O)Oc1cc(OC(=O)c2cccc(C(=O)n3c(=O)c(F)cn([C@@H]4O[C@H](C)[C@@H](OC(C)=O)[C@H]4OC(C)=O)c3=O)c2)c(Cl)cn1 [Example 201, 3-[3-(2-acetoxy-5-chloro-4-pyridyloxycarbonyl)benzoyl]-5'-deoxy-2',3'-di-O-acetyl-5-fluorouridine] | 12 |
| CC(=O)OC[C@H]1O[C@@H](n2cc(F)c(=O)n(C(=O)c3cccc(C(=O)Oc4cc(OC(=O)c5ccccc5)c(Cl)cn4)c3)c2=O)[C@H](OC(C)=O)[C@@H]1OC(C)=O [Example 202, 3-[3-(4-benzoyloxy-5-chloro-2-pyridyloxycarbonyl)benzoyl]-5-fluoro-2',3',5'-tri-O-acetyluridine] | 22 |
| O=C(Oc1cc(OC(=O)c2ccccc2)c(Cl)cn1)c1cccc(C(=O)n2c(=O)c(F)cn([C@H]3C[C@H](OCc4ccccc4)[C@@H](COCc4ccccc4)O3)c2=O)c1 [Example 208, 3-[3-(4-benzoyloxy-5-chloro-2-pyridyloxycarbonyl)benzoyl]-2'-deoxy-3',5'-di-O-benzyl-5-fluorouridine] | 5 |
| CCOCn1cc(F)c(=O)n(C(=O)c2cccc(C(=O)Oc3nc(OC(=O)c4ccccc4)ccc3C#N)c2)c1=O [Example 227, 3-[3-(3-cyano-6-benzoyloxy-2-pyridyloxycarbonyl)benzoyl]-1-ethoxymethyl-5-fluorouracil] | 5 |
